Data taken from article PMC6588243, “Fate of ptaquiloside—A bracken fern toxin—In cattle” (PLoS ONE, 2019).
Several values for one entry are separate records, joined by “and”; a condition that tells them apart may be missing. Equal entries are not always repeated. Entries after “also recorded” stand apart in the source; their conditions may differ. Where two headings read alike, the source gives them in different places.

Assays:
[1] = Incubation of bracken extract in rumen liquid, in vitro; format: in vitro ADME, Jersey cows; details: boiled (sterilized) or pre-frozen rumen fluid
[2] = Presence of glucuronides and sulphates in urine (B-glucuronidase/arylsulfatase incubation); format: in vivo, Jersey heifers; details: urine after iv PTA
Description: The presence of glucuronides and sulphates was assessed by incubating 1 ml of buffered urine samples in 0.1 M acetic acid buffer (pH 5) with or without addition of 100 μl of B-glucuronidase/arylsulfatase at 37°C for 3 hours on a shaking water bath. Afterwards, an aliquot of 950 μl of each samples were cleaned on the Oasis HLB cartridges and analysed as described for urine samples [22].

[3] = Toxicokinetics in plasma after oral administration of bracken extract or dried bracken fern; format: in vivo, Jersey heifers; details: for PTA in plasma after oral administration: bracken extract or dried bracken fern, Experiments 2, 3 and 5; for AUC0-∞ / MTT mean transit time: PTB in plasma; for Cmax / Tmax / k el: female, Jersey, plasma, po; for Cmax: read-out: Cmax maximum concentration; for k el: read-out: λz terminal slope (converted)
Description: Two heifers (no’s 4848 and 4849) were used in a series of five experiments (Table 1) in a cross-over design including intravenous administration of pure PTA, oral administration of bracken extract and oral administration of dried bracken fern. At least 2 weeks elapsed between each experiment.
(§1) Oral exposure, bracken extract. Bracken extract was administered orally by gavage in Experiment 2 (170 and 172 mL) and Experiment 5 (820 and 850 mL), to obtain PTA doses of 0.41 and 2 mg kg^-1 b.w (1.025 and 5.000 μmoles kg^-1), respectively. Blood and urine samples were collected up to 48 hours after gavage and samples were processed and stored as described previously.
(§2) Oral exposure, dried bracken fern. In Experiment 3, dried bracken fern was milled to a fine powder. Immediately before administration, the powder was mixed with water to produce a slurry (15 g of bracken per 100 mL of water). The slurry was administered orally by gavage (400 mL and 380 mL) corresponding to a PTA dose of 1.6 mg kg^-1 b.w (4 μmoles kg^-1). Blood and urine samples were collected up to 72 hours after gavage and the samples were processed and stored as described above.
Concentrations of PTA in plasma of individual animals were evaluated by non-compartmental analysis. Toxicokinetic variables were calculated using standard kinetic equations. The area under the curve (AUC) and the area under the first moment curve (AUMC) were determined using combined linear and natural logarithm trapezoidal rules. The terminal elimination rate was determined using the last three data points of the curve.
(§3) PTA and PTB were analysed by LC-MS after purification using solid phase extraction (SPE) columns as reported in Aranha et al.. The limit of quantification of PTA and PTB in plasma was 3.0 x 10^−3 μM and 9.30 x 10^−3 μM, respectively. Limit of quantifications in diluted urine was 13 x 10^−3 μM for PTA and 8.28 x 10^−3μM for PTB.

[4] = Incubation of bracken extract in rumen liquid, in vitro; format: in vitro ADME, Jersey cows; details: for PTB concentration in rumen liquid: initial PTA 17 μM
Description: Samples of rumen contents were collected from two rumen fistulated Jersey cows. The cows were fed daily with 6 kg of complete feedingstuff (Danish Ragna Grønmix; Danish Agro, Karise, Denmark) and 2 kg of hay. Barley straw and water were provided ad libitum. The rumen liquid fraction was obtained by passing the digest through a 250 μm nylon filter. From each cow, 150 mL rumen liquid was pre-incubated at 37°C under CO2 atmosphere for 10 min before 5 mL of bracken extract was added in order to obtain an initial PTA concentration of 17 μM. PTA stability was assessed by removal of 2.5 mL sample for PTA determination after incubation for 0, 5, 15, 30, 60 and 120 min at 37 °C. The sample was immediately centrifuged for 3 min at 8,500 g and analysed following the method of Aranha et al.. The pH in rumen liquid was determined at the beginning and termination of the experiment.
Rumen liquid samples were cleaned on HLB cartridges and processed as plasma samples. PTA and PTB calibration curves were prepared in ruminal fluid deactivated by boiling for 5 minutes. The recovery of PTA and PTB in ruminal fluid was 74% (± 0.5%) and 80% (± 1.2%), respectively.

[5] = Urinary recovery after oral administration of bracken extract or dried bracken fern; format: in vivo, Jersey heifers; details: for PTB recovered in urine: oral bracken extract or dried fern, within 24 hours
Description: as §1, §2, §3

[6] = cited from earlier work
[7] = design: method as in PMID 21456622; details: calves fed P. esculentum, PTA dose 4.5 μmol kg^-1 b.w.; cited from earlier work
[8] = cows fed bracken for 5 days, PTA dose 23 μmol kg^-1
[9] = oral bracken extract, PTA dose 1.03 μmoles kg^-1, heifer no 4848
[10] = oral bracken extract, PTA dose 1.03 μmoles kg^-1, heifer no 4849
[11] = oral bracken extract, PTA dose 5.02 μmoles kg^-1, heifer no 4848
[12] = oral bracken extract, PTA dose 5.02 μmoles kg^-1, heifer no 4849
[13] = oral dried bracken, PTA dose 4.02 μmoles kg^-1, heifer no 4848
[14] = oral dried bracken, PTA dose 4.02 μmoles kg^-1, heifer no 4849
[15] = bovine, 1.03 μmoles kg^-1, PTB in plasma, oral bracken extract, PTA dose 1.03 μmoles kg^-1, heifer no 4848
[16] = bovine, 1.03 μmoles kg^-1, PTB in plasma, oral bracken extract, PTA dose 1.03 μmoles kg^-1, heifer no 4849
[17] = bovine, 4.02 μmoles kg^-1, PTB in plasma, oral dried bracken, PTA dose 4.02 μmoles kg^-1, heifer no 4848
[18] = bovine, 4.02 μmoles kg^-1, PTB in plasma, oral dried bracken, PTA dose 4.02 μmoles kg^-1, heifer no 4849
[19] = bovine, 5.02 μmoles kg^-1, PTB in plasma, oral bracken extract, PTA dose 5.02 μmoles kg^-1, heifer no 4848
[20] = bovine, 5.02 μmoles kg^-1, PTB in plasma, oral bracken extract, PTA dose 5.02 μmoles kg^-1, heifer no 4849

SMILES: CC1=C[C@]2(O[C@@H]3O[C@H](CO)[C@@H](O)[C@H](O)[C@H]3O)C[C@@H](C)C(=O)[C@@H]2[C@](C)(O)C12CC2 [PTA, (2'R,3a'R,4'S,7a'R)-4'-Hydroxy-2',4',6'-trimethyl-3'-oxo-2',3',3a',4'-tetrahydrospiro[cyclopropane-1,5'-inden]-7a'(1'H)-yl β-D-glucopyranoside]
- degradation of PTA in boiled or pre-frozen rumen fluid [1]: did not reveal any degradation; also recorded: did not degrade PTA
- conjugation with glucuronic acid or sulphate in urine [2]: not conjugated with either glucuronic acid or sulphate
- PTA in plasma after oral administration [3]: not detected; also recorded: neither detected
- PTA in plasma after oral administration ([3]; listed as ptaquiloside): did not result in observations of ptaquiloside in body fluids
- stability of PTA in fresh rumen fluid (in words) ([4]; fresh rumen fluid, 37 °C, pH 6.6): detectable in rumen fluid from cow no 1 only immediately after start; also recorded: lost within few minutes
- time during which PTA was observed in rumen liquid ([4]; fresh rumen liquid, 17 μM, 37 °C): ≤ 5 min
- PTA in urine after oral administration ([5]; bracken extract or dried bracken fern): neither detected
- time after feeding bracken at which PTA was found in milk [6]: 38 h
- PTA excreted in milk as share of the dose [6, 8]: 9.6 % of the dose
- plateau of PTA excreted in milk [6, 8]: 50 µM
- PTA concentration in milk ([6]; one cow fed 6 kg freshly cut bracken daily for 7 days, PTA 540 μmol day^-1): 0.28 µM

SMILES: Cc1cc2c(c(C)c1CCO)C(=O)[C@H](C)C2 [PTB, pterosin B]
- conjugation with glucuronic acid or sulphate in urine [2]: not conjugated with either glucuronic acid or sulphate
- AUC0-∞ [3, 9]: 0.177 µM·h
- MTT mean transit time [3, 9]: 3.82 h
- AUC0-∞ [3, 10]: 0.367 µM·h
- MTT mean transit time [3, 10]: 4.55 h
- AUC0-∞ [3, 11]: 0.594 µM·h
- MTT mean transit time [3, 11]: 2.89 h
- AUC0-∞ [3, 12]: 0.657 µM·h
- MTT mean transit time [3, 12]: 3.02 h
- AUC0-∞ [3, 13]: 0.897 µM·h
- MTT mean transit time [3, 13]: 3.29 h
- AUC0-∞ [3, 14]: 0.428 µM·h
- MTT mean transit time [3, 14]: 3.58 h
- PTB in plasma and urine after oral administration ([3]; bracken extract or dried ferns): detected in both plasma and urine
- Cmax [3, 15]: 28 nM
- Tmax ([3]; bovine, 1.03 μmoles kg^-1, PTB in plasma, oral bracken extract, PTA dose 1.03 μmoles kg^-1, heifer no 4848, read-out: Tmax time at maximum concentration): 2 h
- k el [3, 15]: 6.5e-05 s⁻¹
- Cmax [3, 16]: 43 nM
- Tmax ([3]; bovine, 1.03 μmoles kg^-1, PTB in plasma, oral bracken extract, PTA dose 1.03 μmoles kg^-1, heifer no 4849, read-out: Tmax time at maximum concentration): 0.5 h
- k el [3, 16]: 2.78e-05 s⁻¹
- Cmax [3, 17]: 182 nM
- Tmax ([3]; bovine, 4.02 μmoles kg^-1, PTB in plasma, oral dried bracken, PTA dose 4.02 μmoles kg^-1, heifer no 4848, read-out: Tmax time at maximum concentration): 0.5 h
- k el [3, 17]: 8.56e-05 s⁻¹
- Cmax [3, 18]: 74 nM
- Tmax ([3]; bovine, 4.02 μmoles kg^-1, PTB in plasma, oral dried bracken, PTA dose 4.02 μmoles kg^-1, heifer no 4849, read-out: Tmax time at maximum concentration): 2 h
- k el [3, 18]: 7.78e-05 s⁻¹
- Cmax [3, 19]: 160 nM
- Tmax ([3]; bovine, 5.02 μmoles kg^-1, PTB in plasma, oral bracken extract, PTA dose 5.02 μmoles kg^-1, heifer no 4848, read-out: Tmax time at maximum concentration): 1 h
- k el [3, 19]: 0.000106 s⁻¹
- Cmax [3, 20]: 174 nM
- Tmax ([3]; bovine, 5.02 μmoles kg^-1, PTB in plasma, oral bracken extract, PTA dose 5.02 μmoles kg^-1, heifer no 4849, read-out: Tmax time at maximum concentration): 0.75 h
- k el [3, 20]: 8.06e-05 s⁻¹
- Tmax ([3]; cattle, PTB, oral bracken extract and bracken fern, read-out: time to maximum concentration in plasma (Tmax)): ~1 h
- PTB as share of the added PTA ([4]; 5 min after the start of incubation): 10%
- PTB concentration in rumen liquid ([4]; after 120 min, 37 °C): 2.7 µM
- PTB as share of the added PTA ([4]; final sampling (120 min)): 16%
- PTB concentration in rumen liquid ([4]; starting time, rumen liquid of two cows, 37 °C): 1.35 µM and 1.62 µM
- PTB recovered in urine [5]: up to 7 % of the dose
- PTB recovered in urine ([5]; listed as Pterosin B): 7 % of the dose
- peak concentration of PTB in plasma relative to the single dose study of this paper [7]: 26 times
